Results reported in ChEMBL document CHEMBL1201862, “PubChem BioAssay data set” (2004).
Activity calls are given as the source filed them.

How the values were obtained:
[1] = OVCAR-3 cell viability loss – plate reader, dry powder samples, PAX8 inhibitor project, dose response (AID 743044); type: functional, cell-based
[2] = OVCAR8 cell viability loss – plate reader, dry powder samples, PAX8 project, dose response (AID 743197); type: functional, cell-based; settings: OVCAR-8
Paired box protein Pax-8 = Paired box protein Pax-8 (Homo sapiens, UniProt Q06710); assay: PAX8 transcriptional activity inhibition in RMG-I – RMG-I cells, luciferase, cherry-pick, dose response (AID 687027); type: functional, cell-based;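 also: luciferase reporter driven by Pax8 target thyroperoxidase promoter measured by SteadyGlo luminescence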
Sequence of Paired box protein Pax-8 (Q06710 whole entry): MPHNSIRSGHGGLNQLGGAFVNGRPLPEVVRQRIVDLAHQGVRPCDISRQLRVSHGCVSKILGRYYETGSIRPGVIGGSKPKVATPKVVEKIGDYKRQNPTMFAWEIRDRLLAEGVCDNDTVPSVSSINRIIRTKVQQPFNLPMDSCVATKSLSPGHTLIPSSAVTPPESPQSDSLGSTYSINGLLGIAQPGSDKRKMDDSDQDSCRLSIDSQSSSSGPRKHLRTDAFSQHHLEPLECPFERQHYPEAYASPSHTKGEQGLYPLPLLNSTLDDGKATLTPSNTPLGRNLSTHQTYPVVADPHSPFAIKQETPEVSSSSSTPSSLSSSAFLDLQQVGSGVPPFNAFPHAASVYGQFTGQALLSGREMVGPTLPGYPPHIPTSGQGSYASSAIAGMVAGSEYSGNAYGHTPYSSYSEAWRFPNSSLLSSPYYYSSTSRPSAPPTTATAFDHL

[3] = molecular target: T1, Microphthalmia-associated transcription factor (Homo sapiens, UniProt O75030); assay: reducers of TRPM1 reporter luminescence, concentration series – cell-based, SK-MEL-5, cherry-picked, set 3, MITF inhibitor project, dose response (AID 493073); type: functional;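 also: SK-MEL-5 melanoma cells with luciferase driven by the MITF target TRPM1 promoter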
T1 sequence (O75030 whole entry): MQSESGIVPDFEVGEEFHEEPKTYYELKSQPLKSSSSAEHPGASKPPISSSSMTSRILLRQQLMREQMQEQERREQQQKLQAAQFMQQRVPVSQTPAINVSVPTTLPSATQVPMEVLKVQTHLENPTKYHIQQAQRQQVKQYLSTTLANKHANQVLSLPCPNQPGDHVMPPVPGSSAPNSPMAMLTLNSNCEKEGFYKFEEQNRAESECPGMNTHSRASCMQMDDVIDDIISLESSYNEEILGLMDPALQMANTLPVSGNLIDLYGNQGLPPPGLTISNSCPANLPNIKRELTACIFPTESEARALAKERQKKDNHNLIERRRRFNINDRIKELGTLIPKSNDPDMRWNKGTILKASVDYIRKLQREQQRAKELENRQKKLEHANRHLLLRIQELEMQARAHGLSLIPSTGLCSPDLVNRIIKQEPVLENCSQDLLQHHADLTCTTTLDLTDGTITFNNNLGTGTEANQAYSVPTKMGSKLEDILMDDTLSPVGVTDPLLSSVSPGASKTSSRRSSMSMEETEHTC

[4] = HEK-293T cell viability reduction – luminescence, B-cell screen hits, cytotoxicity control for BCR NF-kB inhibitor project, dose response (AID 489021); type: functional, cell-based;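 also: HEK-293T cells carrying an NF-kB luciferase reporter; cells exposed to compound for about 14 hours before viability readout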
[5] = alpha-synuclein stem-loop luciferase translation blockers – H4 neuroglioma cells, luminescence, confirmation (AID 1988); type: functional, cell-based
[6] = luciferase reporter signal suppression in cells – H4 neuroglioma cells, luminescence, dose response (AID 1990); type: functional, cell-based
[7] = Dd2 malaria parasite growth inhibition potency – SYBR Green, dry powder samples, dose response (AID 1159566); type: functional, cell-based;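 also: potency for growth inhibition with lower SYBR green DNA signal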
[8] = growth inhibition of yeast DHODH-expressing 3D7 parasites – SYBR Green, dry powder samples, dose response (AID 1159570); type: functional, cell-based;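 also: parasite growth measured after 72 hours of compound exposure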
[9] = growth inhibition of PfATP4-mutant resistant parasites – NITD609-resistant line, SYBR Green, dry powder, dose response (AID 1159571); type: functional, cell-based;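 also: parasites synchronized at ring stage by sorbitol before testing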
[10] = P. falciparum Dd2 growth inhibitors, dose response, SYBR Green, cherry-picked samples (AID 1159567); type: functional, cell-based
[11] = HepG2 cell cytotoxicity, dose response, cytotoxicity control for non-replicating M. tuberculosis project (AID 489018); type: functional; settings: Mycobacterium tuberculosis
[12] = molecular target: T2, High affinity choline transporter 1 (Homo sapiens, UniProt Q9GZV3); assay: human choline transporter blockers, potency – cell-based, 5-point CRC, membrane potential dye, dose response (AID 504840); type: functional
T2 sequence (Q9GZV3 whole entry): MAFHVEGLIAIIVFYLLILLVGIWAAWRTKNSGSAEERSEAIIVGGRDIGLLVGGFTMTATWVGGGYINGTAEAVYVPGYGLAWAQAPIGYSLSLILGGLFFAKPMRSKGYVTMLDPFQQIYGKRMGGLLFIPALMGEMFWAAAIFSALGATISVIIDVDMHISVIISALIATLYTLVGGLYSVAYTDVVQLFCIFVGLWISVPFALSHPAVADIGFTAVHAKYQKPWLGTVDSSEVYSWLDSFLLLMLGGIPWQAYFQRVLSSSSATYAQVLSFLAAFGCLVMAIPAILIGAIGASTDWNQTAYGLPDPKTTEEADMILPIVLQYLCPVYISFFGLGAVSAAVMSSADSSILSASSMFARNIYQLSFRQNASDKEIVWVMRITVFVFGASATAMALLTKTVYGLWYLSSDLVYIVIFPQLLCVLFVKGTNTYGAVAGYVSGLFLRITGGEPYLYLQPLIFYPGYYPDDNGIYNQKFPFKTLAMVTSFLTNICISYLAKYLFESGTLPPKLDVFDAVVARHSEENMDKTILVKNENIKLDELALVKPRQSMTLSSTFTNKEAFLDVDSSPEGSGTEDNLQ

[13] = molecular target: T3, Calpain-2 catalytic subunit (Sus scrofa, UniProt P43367); assay: m-calpain protease blockers, concentration series – biochemical, fluorogenic peptide substrate, dose response (AID 1420); type: functional
T3 sequence (P43367 whole entry): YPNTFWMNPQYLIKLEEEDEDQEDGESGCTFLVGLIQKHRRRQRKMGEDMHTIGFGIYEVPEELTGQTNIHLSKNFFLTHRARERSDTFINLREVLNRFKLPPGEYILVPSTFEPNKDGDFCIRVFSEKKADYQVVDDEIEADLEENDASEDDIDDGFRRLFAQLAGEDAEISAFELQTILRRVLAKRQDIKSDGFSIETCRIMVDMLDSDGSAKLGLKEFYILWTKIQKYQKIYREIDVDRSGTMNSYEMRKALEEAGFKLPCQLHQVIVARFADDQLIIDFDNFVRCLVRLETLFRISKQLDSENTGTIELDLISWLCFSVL

[14] = Luminescence Cell-Based Dose Confirmation HTS to Identify Inhibitors of Platelet Dense Granule Release. [Related pubchem assays: 1663 (Primary HTS), 1678 (Summary of Project)]; type: functional
[15] = molecular target: Luciferin 4-monooxygenase (Photinus pyralis, UniProt P08659); assay: inhibition of purified Photinus pyralis luciferase – biochemical, luminescence, dose response (AID 1891)
Sequence of Luciferin 4-monooxygenase (P08659 whole entry): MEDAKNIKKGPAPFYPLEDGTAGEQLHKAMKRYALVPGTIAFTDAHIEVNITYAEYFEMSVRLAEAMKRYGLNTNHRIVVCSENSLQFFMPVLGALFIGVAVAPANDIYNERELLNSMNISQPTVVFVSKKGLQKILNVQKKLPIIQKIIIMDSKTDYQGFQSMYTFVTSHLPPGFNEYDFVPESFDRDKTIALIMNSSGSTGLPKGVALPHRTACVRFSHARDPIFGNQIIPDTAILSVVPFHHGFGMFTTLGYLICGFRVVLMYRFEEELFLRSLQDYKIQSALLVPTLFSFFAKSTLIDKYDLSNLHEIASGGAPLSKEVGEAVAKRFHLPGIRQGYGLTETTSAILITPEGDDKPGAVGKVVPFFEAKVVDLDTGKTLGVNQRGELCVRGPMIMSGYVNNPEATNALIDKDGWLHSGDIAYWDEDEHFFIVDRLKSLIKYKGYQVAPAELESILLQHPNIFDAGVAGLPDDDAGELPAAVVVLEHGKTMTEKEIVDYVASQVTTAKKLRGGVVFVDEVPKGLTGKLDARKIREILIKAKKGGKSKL

[16] = Luminescence Cell-Based Dose Response HTS to Identify Inhibitors of 5'UTR Stem-Loop Driven Prion Protein mRNA Translation in H4 Neuroglioblastoma Cells. [Related pubchem assays: 1827 (Project Summary), 1813 (Primary HTS)]; type: functional
[17] = THP-1 cell cytotoxicity, dose response, cytotoxicity control for non-replicating M. tuberculosis project (AID 489025); type: functional
[18] = Vero E6 cell cytotoxicity, dose response, cytotoxicity control for non-replicating M. tuberculosis project, secondary assay (AID 492998); type: functional, VeroE6; settings: Vero C1008
cells [19] = type: functional
[20] = microbe, parasite or virus in culture; type: functional; settings: Mycobacterium tuberculosis
Streptokinase A = molecular target: T4, Streptokinase A (Streptococcus pyogenes serotype M1, UniProt P10520); assay: viability-normalized secreted streptokinase activity reduction – plasminogen activation absorbance, OD405, dose response (AID 1914); type: functional, Streptococcus pyogenes M1 GAS;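 also: secreted streptokinase activity via plasminogen activation per viability signal from cell pellet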
T4 sequence (P10520 whole entry): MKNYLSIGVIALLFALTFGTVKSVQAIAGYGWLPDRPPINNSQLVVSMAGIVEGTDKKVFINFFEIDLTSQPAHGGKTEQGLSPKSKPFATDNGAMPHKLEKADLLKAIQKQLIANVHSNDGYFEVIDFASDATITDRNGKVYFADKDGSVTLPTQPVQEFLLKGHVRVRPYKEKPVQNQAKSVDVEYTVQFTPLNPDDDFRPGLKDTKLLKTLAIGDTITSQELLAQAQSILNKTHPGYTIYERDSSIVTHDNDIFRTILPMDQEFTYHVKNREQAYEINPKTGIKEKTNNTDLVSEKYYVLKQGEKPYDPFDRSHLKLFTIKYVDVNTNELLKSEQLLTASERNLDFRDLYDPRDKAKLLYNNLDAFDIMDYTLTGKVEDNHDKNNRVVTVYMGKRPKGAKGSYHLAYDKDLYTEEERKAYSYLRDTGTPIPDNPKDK

Streptococcus = assay: GAS UMAA2166 growth inhibition – luminescence, BacTiterGlo, counter-screen for streptokinase expression inhibitor project, dose response (AID 1915); type: functional, organism-based;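 also: potency for reduction of bacterial viability or growth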
[21] = Trypanosoma cruzi growth suppression in host cells – NIH3T3 host cells, beta-gal luminescence, confirmation (AID 2044); type: functional, cell-based;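 also: intracellular parasites grown in NIH/3T3 mouse fibroblasts as host cells; luminescent beta-galactosidase reporter signal from transgenic T. cruzi replicating inside host cells; inhibitors lower the luminescence signal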
[22] = system: Streptococcus sp. 'group A'; assay: Streptococcus pyogenes SK(-)GAS viability under kanamycin – luminescence, BacTiterGlo, confirmation, counter-screen for streptokinase expression inhibitor project, dose response (AID 1900); type: functional, organism-based
[23] = NIH3T3 cell viability loss – ATP luminescence, mouse fibroblasts, counter-screen, dose response (AID 2010); type: functional, cell-based;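 also: cells exposed to compound for about 90 hours before reading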
cells [24] = type: functional, cell-based
cells [25] = type: functional, cell-based; remark: listed apart in the source
INS1 = assay: INS-1E survival protection against cytokine death – cell-based, luminescence, retest, dose response (AID 449756); type: functional; settings: Rattus norvegicus;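 also: cell death triggered by IL-1 beta plus TNF-alpha plus IFN-gamma mixture; protective hits raise ATP signal compared with cytokine alone wells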

CC(C)NC(=O)N(C)C[C@H]1OCCCC[C@@H](C)Oc2ccc(NC(=O)Nc3ccc(C(F)(F)F)cc3)cc2C(=O)N([C@@H](C)CO)C[C@H]1C
AC50 [1]: 32.7 µM (active)
AC50 [2]: 48.9 µM (active)
AC50 (Paired box protein Pax-8): 8.11 µM (active)

COc1cc2nc(SCC(=O)NCc3ccco3)n(Cc3ccc(Cl)cc3)c(=O)c2cc1OC
AC50 [3]: 13.2 µM (active)

Cc1c(CCC(=O)N2CCC[C@H]2C(=O)O)c(=O)oc2cc3oc4c(c3cc12)CCCC4
IC50 [4]: > 80 µM (inactive)
EC50 [5]: 10.2 µM (active)
EC50 [6]: 8.13 µM (active)

C[C@H]1CN([C@@H](C)CO)C(=O)c2c(c3ccccc3n2C)-c2ccccc2CO[C@@H]1CN(C)S(=O)(=O)c1ccc(F)cc1
AC50 [7]: 0.755 µM (active)
AC50 [8]: 1.4 µM (active)
AC50 [9]: 1.15 µM (active)
AC50 [10]: 1.89 µM (active)

Nc1cccn2c(-c3ccc(Cl)cc3)cnc12
CC50 [11]: 19.1 µM (active)

Cc1nn(-c2ccccc2)c(C)c1C(=O)OCC(=O)NC(=O)NC1CCCC1
IC50 [12]: 14.5 µM (active)

O=C(CCCN1C(=O)/C(=C/c2ccccc2Cl)SC1=S)NNC(=O)c1ccc(Cl)cc1Cl
IC50 [4]: > 80 µM (inactive)
EC50 [5]: 1.03 µM (active)
EC50 [6]: 0.675 µM (active)
IC50 [13]: > 50 µM (not active)
EC50 [14]: > 112 µM (not active)
EC50 [15]: > 112 µM (not active)
EC50 [16]: 7.86 µM (active)

COC(=O)/C(=C/c1c[nH]c2ccccc12)[N+](=O)[O-]
IC50 [12]: 0.724 µM (active)

COc1ccc(/C(C)=N/Nc2ncc(Cl)cc2Cl)c(O)c1
CC50 [11]: 19.3 µM (active)
CC50 [17]: 24.9 µM (active)
CC50 [18]: > 20 µM (active)
IC50 (cells [19]): 2.19 µM (active)

Cc1nnc(-c2ccccc2)c(=O)n1/N=C/c1c(O)ccc2ccccc12
CC50 [11]: > 20 µM (active)
CC50 [20]: 18.9 µM (active)
EC50 (Streptokinase A): > 150 µM (not active)
EC50 (Streptococcus): 36.2 µM (active)
EC50 [5]: > 120 µM (not active)
EC50 [21]: 1.16 µM (active)
EC50 [6]: > 120 µM (not active)
CC50 [17]: 3.63 µM (active)
CC50 [18]: 8.43 µM (active)
EC50 [22]: 2.7 µM (active)
EC50 [23]: 1.97 µM (active)
IC50 (cells [19]): 35.3 µM (active)
EC50 [16]: 9.49 µM (active)
EC50 (cells [24]): 25.7 µM (active)
EC50 (cells [25]): > 350 µM (not active)

Cc1nnsc1C(=O)N/N=C/c1ccc2ccccc2c1O
CC50 [11]: 1.51 µM (active)
AC50 (INS1): 0.321 µM (active)
CC50 [17]: < 0.078 µM (active)
CC50 [18]: 0.09 µM (active)
IC50 (cells [19]): > 50 µM (active)
EC50 (cells [24]): 6.43 µM (active)
EC50 (cells [25]): 35.8 µM (active)
